This passage reports IC50, MIC and inhibition results from patent publication US6255324A, “Amino-and mercurio-substituted 4',5'-dihydropsoralens and therapeutical uses thereof” (priority 1998, dated 2001).

Assay [1] concerns PAM 212 keratinocytes. Description: PAM 212 keratinocyte growth inhibition (photo-toxicity with UVA / dark-toxicity without light). The following applies: UVA 320-400 nm, 1.28 J/cm2, growth 4-5 days. In kind it is cell-based. The procedure: Representative examples of the compounds described and claimed herein were tested in this assay for biological activity and found to be potent inhibitors of cell growth. Inhibition of cell growth was rapid, dependent on concentration, and required light activation. […] A description of this assay follows.
The photobiological activity was assayed using a keratinocyte cell line grown in a monolayer culture. In this assay, PAM 212 keratinocytes were grown in Dulbecco's Modified Eagle's medium supplemented with 10% newborn calf serum in a 5% carbon dioxide incubator. Cells were inoculated into 6-well Falcon plastic culture dishes at 25,000 cells per well. After 24 hours, the medium was charged to fresh growth medium supplemented with increasing concentrations of the test compounds or the control medium. Controls and test concentrations were analyzed in triplicate.
These plates were then incubated in a 37 degree C. carbon dioxide incubator. After 30 minutes culture plates were exposed to UVA light (UVA, 320-400 nm) emitted from a bank of four BLB fluorescent light tubes (F40 BL, Sylvania) placed approximately 10 cm above the cell culture plates. The incident light on the culture plates was 2.4 mW/cm^2 as measured with an International Light UV radiometer, Model IL 442A. The cells were exposed to 1.28 J/square centimeter of UVA.
After completion of the irradiation phase, the cell culture medium was drained, the cells refed with fresh growth medium and then re-incubated in the carbon dioxide incubator to allow for cell growth. After 4-5 days of growth the culture plates were removed from the incubator and the cell culture medium was drained. The cells were detached from the plates with trypsin and counted in a Coulter Counter. For control cells or for cells treated with test compounds, cell growth was determined as a percentage of control. […] This value is shown in Table I for a variety of phototherapeutics.

Assay [2] concerns PAM 212 keratinocytes. The assay is described as above. It counts as cell-based.
In another assay the test system is Aspergillus niger. Description: Fungicidal assay, MIC against Aspergillus niger in MSY broth. In kind it is cell-based. The following applies: Table II, four days at 28° C, in the dark, no unit in table (ppm levels). The procedure: The antifungal activities of compounds synthesized were measured by determining the inhibition of growth of Aspergillus niger in a standard liquid medium. The liquid growth medium is described as a solution of mineral salts and yeast extract (MSY). The MSY broth was prepared as described in ASTM G21-70, and amended with glucose (10 g/l) and yeast extract (1 g/l). An aliquot ([…]) of sterile medium was dispensed into each test well of a standard 96 well microplate (Corning No. 430247). Stock solutions of test compounds were prepared by dissolving the materials in 9:1 (v/v) solutions of acetone:methanol. Appropriate volumes of stock solutions were added to the test wells in order to achieve the desired ppm levels. Each test well (plus controls) was then inoculated with […] of a standardized suspension of Aspergillus niger. The cell suspension was prepared by suspending viable cells from a slant of potato dextrose agar into sterile, deionized water. The suspension was then adjusted to provide OD686 =0.28. This density contains approximately 2.5×10^7 CFU (colony forming units)/ml. The microplates were incubated in the dark for four days at 28° C. The optical density for each well at 686 nm was then recorded automatically using a SpectraMax 340 microplate reader (Molecular Devices Corp., Sunnyvale, Calif.). All wells were visually inspected in order to corroborate data from the instrument.
The antifungal activity was measured as minimum inhibitory concentrations or MIC of the 5'-substituted-4',5'-dihydropsoralens.

The next assay relates to Chlorella vulgaris. Briefly: Algicidal assay, MIC against Chlorella in modified Allen's medium. In kind it is cell-based. Conditions: Table III, 14 days, 26 to 28° C, no unit in table (ppm). How it is done: To assay the activity of the 5'-substituted-4',5'-dihydropsoralens of the invention against Chlorella, the Allen method (A. A. Allen, […], Journal of Phycology, 4, 1-4) was employed. […] The minimum inhibitory concentration (MIC) of the compounds tested against the fungus Aspergillus niger using an MSY broth is shown in Table II.
Test tubes containing modified Allen's medium were treated with increasing dosages of the compound to be tested and inoculated with a suspension of algal cells. After fourteen days of incubation, algal growth was rated as positive or negative. The minimum inhibitory concentration (MIC) of the compound is the smallest dosage showing negative algal growth.
The apparatus required consisted of sterilized test tubes, 18-150 mm and an incubator, capable of a constant (±2° C.) temperature within 26 to 28° C. The following procedure was used:
(1) Stock solutions (g/200 g deionized water each) were generated with: K2 HPO4, 1.50 g; MgSO4, 7H2 O, 1.50 g; Na2 CO3, 0.80 g; CaCl2 2H2 O, 0.50 g; Na2 SiO3 9H2 O, 1.16 g, and Citric acid, 1.20 g.
(3) The modified Allen's medium was prepared in a volumetric flask by the addition of 1.5 g NaNO3, 5.0 mL stock solution K2 HPO4, 5.0 mL stock solution MgSO4 -- 7H2 O, 5.0 mL Stock solution Na2 CO3, 10.0 mL stock solution CaCl2 2H2 O, 10.0 mL stock solution Na2 SiO3 9H2 O, 1.0 mL stock solution Citric acid and 1.0 mL stock solution PIV metal with enough deionized water to make 1000 mL of medium (Allen, 1968). The pH was adjusted to 7.8 and 5 mL of medium is added to each test tube. The tubes were sterilized in the autoclave for 20 minutes at 15 psi at 121° C. The test tubes were allowed to cool to 45-50° C. before adding the test compound and the inoculurn to the medium.
(4) The inoculum was a cell suspension from a 14-day-old culture of Chlorella vulgaris (UTEX 26, University of Texas) that was grown in modified Allen's medium.
The concentration of the stock solution in water or acetone of the compound to be tested is dependent on the largest dose required to be tested. Dilutions of the stock solution were made so that 100 μL of the stock solution of the corresponiding dilution was added per test tube. 100 μL of the solvent was added to the control to prepare the stock solution.
The inoculation consists of the addition of 100 μL of inoculurn per test tube.
The incubation of the control test tube and the test tubes containing compound and inoculum occurred in an incubator set between 26 to 28° C., with the temperature not varying more than ±2° C. Light was provided by plant growth fluorescent tubes and the test tubes were allowed to stand in the incubator for 14 days.
Rating of the test tubes containing different dosages of the compound will be positive or negative. […] If the medium in the rubes remains colorless, a negative (not contaminated) rating is given. The control is always positive. The minimum inhibitory concentration (MIC) of the compound is determined to be the smallest dosage showing negative algal growth.

The test system of assay [3] is Mycobacterium tuberculosis H37Rv. Description: Antituberculosis primary in vitro screen, BACTEC 460. In kind it is cell-based, Mycobacterium tuberculosis H37Rv ATCC 27294. The following applies: Mycobacterium tuberculosis, H37RV; 12.5 μg/mL, 37° C; read-out: Anti-tubercular Activity (% inhibition).
Where [4] appears, read: Mus musculus, PAM212, light or radiation study.

Where a name gives a salt, the structure may show the parent alone. Read-outs that look alike come from different tables or passages of the source.

On to `Cc1c(F)c(=O)oc2c(C)c3c(cc12)CC(CBr)O3` (stereo not shown) [R = F, T = Br, 3-Fluoro-4,8-dimethyl-5'-bromomethyl-4',5'-dihydropsoralen], for which the IC50 – broadly, the concentration needed to halve the response being measured – in the assay with PAM 212 keratinocytes [1] worked out at 4 µM.

Take “4,8-dimethyl-5'-trifluoroacetomercurimethyl-4',5'-dihydropsoralen [R = H, T = Hg-O-COCF3]”: the IC50 came to 7 µM in the assay with PAM 212 keratinocytes [2] and 4.2 µM in the assay with PAM 212 keratinocytes [1]. In addition, the results for the MIC in the assay with Aspergillus niger and in the assay with Chlorella vulgaris were 16 and 10, respectively.

With `Cc1cc(=O)oc2c(C)c3c(cc12)CC([CH2][Hg][Cl])O3` (stereo not shown) [R = H, T = HgCl, 4,8-Dimethyl-5'-chloromercurimethyl-4',5'-dihydropsoralen], the IC50 was 15 µM in the assay with PAM 212 keratinocytes [2] and 6.1 µM with PAM 212 keratinocytes [1]. The MIC in the assay on Aspergillus niger was under 8; against Chlorella vulgaris, 10.

In the case of `CC(=O)[O][Hg][CH2]C1Cc2ccccc2O1` (stereo not shown) [T = HgOAc, 2-Acetomercurimethyl-2,3-dihydrobenzofuran], the IC50 with PAM 212 keratinocytes [2] worked out at 11 µM; in the assay with PAM 212 keratinocytes [1], 6.1 µM. The MIC is recorded as 16 with Aspergillus niger and 10 against Chlorella vulgaris.

In the case of `Cc1c(Br)c(=O)oc2c(C)c3c(cc12)CC(C[n+]1ccccc1)O3` (stereo not shown) [R = Br, T = pyridinium iodide salt, 3-Bromo-4,8-dimethyl-5'-(N-pyridiniummethyl)-4',5'-dihydropsoralen Iodide Salt], the IC50 with PAM 212 keratinocytes [1] (setting [4]) came to 1.6 µM.

In turn, `Cc1cc(=O)oc2c(C)c3c(cc12)CC(CN1CC(C)OC(C)C1)O3` (stereo not shown) [R = H, T = 2,6-dimethylmorpholine, 4,8-Dimethyl-5'-(2,6-dimethylmorpholino)methyl-4',5'-dihydropsoralen] displayed an IC50 with PAM 212 keratinocytes [1] (setting [4]) of 0.01 µM.

In the assay with PAM 212 keratinocytes [1] (setting [4]), `Cc1cc(=O)oc2c(C)c3c(cc12)CC(C)O3` (stereo not shown) [R = H, T = H, reference compound] showed an IC50 of 0.27 µM.

Compound `Cc1cc(=O)oc2c(C)c3c(cc12)CC(CN(CCO)CCO)O3` (stereo not drawn) [R = H, T = N(CH2 CH2 OH)2, 4,8-Dimethyl-5'-[N,N-β-(hydroxyethylamino)-methyl]-4',5'-dihydropsoralen] registered an IC50 with PAM 212 keratinocytes [1] (setting [4]) of 0.31 µM.

With `Cc1cc(=O)oc2c(C)c3c(cc12)CC(CN1CCOCC1)O3` (stereo not shown) [R = H, T = morpholino, 4,8-Dimethyl-5'-morpholinomethyl-4',5'-dihydropsoralen], it took 3.2 µM to reach half-maximal inhibition in the assay with PAM 212 keratinocytes [1] (setting [4]) (IC50).

As for `CC(=O)[O][Hg][CH2]C1Cc2cc3c(C)c(F)c(=O)oc3c(C)c2O1` (stereo not shown) [R = F, T = HgOAc, 3-Fluoro-4,8-dimethyl-5'-acetomercurimethyl-4',5'-dihydropsoralen], the results for the IC50 in the assay on PAM 212 keratinocytes [2] and in the assay with PAM 212 keratinocytes [1] were 14 µM and 9.3 µM, respectively.

Take `CC(=O)[O][Hg][CH2]C1Cc2cc3c(C)cc(=O)oc3c(C)c2O1` (stereo not shown) [R = H, T = HgOAc, 4,8-Dimethyl-5'-acetomercurimethyl-4',5'-dihydropsoralen]: the IC50 was 6.2 µM with PAM 212 keratinocytes [2] and 4.8 µM in the assay with PAM 212 keratinocytes [1]. In addition, the MIC in the assay with Aspergillus niger is under 8; in the assay on Chlorella vulgaris, 10.

As to `CC(=O)[O][Hg][CH2]C1Cc2cc3c(C)c(C#N)c(=O)oc3c(C)c2O1` (stereo not shown) [R = CN, T = HgOAc, 3-Cyano-4,8-dimethyl-5'-acetomercurimethyl-4',5'-dihydropsoralen], the IC50 in the assay with PAM 212 keratinocytes [2] stood at 30 µM; in the assay with PAM 212 keratinocytes [1], 20 µM.

In the case of `Cc1c(F)c(=O)oc2c(C)c3c(cc12)CC(CI)O3` (stereo not shown) [R = F, T = I, 3-Fluoro-4,8-dimethyl-5'-iodomethyl-4',5'-dihydrofurocoumarin], the inhibition – broadly, the percentage by which the read-out fell short of the control – at 12.5 µg/mL in assay [3] was 31%. The same compound came in with an IC50 in the assay with PAM 212 keratinocytes [1] (setting [4]) of 62 µM.

For the compound `Cc1cc(=O)oc2c(C)c3c(cc12)CC(CN(C)C)O3` (stereo not shown) [R = H, T = dimethyl amino iodide salt, 4,8-Dimethyl-5'-[(N,N-dimethylamino)methyl]-4',5'-dihydropsoralen Hydroiodide Salt], in assay [3], the inhibition at 12.5 µg/mL came to 4%. Besides, in the assay with PAM 212 keratinocytes [1] (setting [4]), half-maximal inhibition (IC50) was put at 0.1 µM.

In the assay on PAM 212 keratinocytes [1], `Cc1c(C#N)c(=O)oc2c(C)c3c(cc12)CC(CBr)O3` (stereo not shown) [R = CN, T = Br, 3-Cyano-4,8-dimethyl-5'-bromomethyl-4',5'-dihydropsoralen] displayed an IC50 of 6.4 µM.

Take `[Cl][Hg][CH2]C1Cc2ccccc2O1` (stereo not shown) [T = HgCl, 2-Chloromercurimethyl-2,3-dihydrobenzofuran]: the IC50 was found to be 13 µM with PAM 212 keratinocytes [2] and 5.9 µM with PAM 212 keratinocytes [1]. Besides, the MIC is recorded as 24 in the assay on Aspergillus niger and 10 in the assay with Chlorella vulgaris.

`Cc1c(C#N)c(=O)oc2c(C)c3c(cc12)CC(CI)O3` (stereo not shown) [R = CN, T = I, 3-Cyano-4,8-dimethyl-5'-iodomethyl-4',5'-dihydropsoralen] gave an IC50 in the assay on PAM 212 keratinocytes [1] (setting [4]) of 2.1 µM.

Compound `Cc1c(Br)c(=O)oc2c(C)c3c(cc12)CC(CN1C(=O)c2ccccc2C1=O)O3` (stereo not shown) [R = Br, T = phthalimido] showed an IC50 with PAM 212 keratinocytes [1] (setting [4]) of 3.9 µM.

For the compound `Cc1cc(=O)oc2c(C)c3c(cc12)CC(C[n+]1ccccc1)O3` (stereo not shown) [R = H, T = pyridinium iodide salt, 4,8-Dimethyl-5'-(N-pyridiniummethyl)-4',5'-dihydropsoralen Iodide Salt], in the assay on PAM 212 keratinocytes [1] (setting [4]), the IC50 is 0.37 µM.

Consider `Cc1cc(=O)oc2c(C)c3c(cc12)CC([CH2][Hg][I])O3` (stereo not shown) [R = H, T = HgI, 4,8-Dimethyl-5'-iodomercurimethyl-4',5'-dihydropsoralen], for which the IC50 in the assay on PAM 212 keratinocytes [2] is 4.2 µM; in the assay on PAM 212 keratinocytes [1] it was 1.3 µM. In addition, the MIC with Aspergillus niger is reported as under 8; in the assay on Chlorella vulgaris, 9.

`Cc1c(C#N)c(=O)oc2c(C)c3c(cc12)CC(C[n+]1ccccc1)O3` (stereo not shown) [R = CN, T = pyridinium iodide salt, 3-Cyano-4,8-dimethyl-5'-(N-pyridiniummethyl)-4',5'-dihydropsoralen Iodide Salt] came in with an IC50 in the assay on PAM 212 keratinocytes [1] (setting [4]) of 1000 µM.
